Experimental data from patent US9403830B2, “Inhibitors of leukotriene production” (Boehringer Ingelheim International GmbH, priority 2012, dated 2016).

Assays:
[1] = molecular target: T1, human LTA4 hydrolase (Homo sapiens, UniProt P09960); assay: LTA4H Enzyme assay (peptidase, Arg-AMC cleavage); format: biochemical; settings: LTA4H enzyme 1 nM, Arg-AMC substrate 50 μM, room temperature 1 h, fluorescence 380/460 nm
T1 sequence (P09960 1-611): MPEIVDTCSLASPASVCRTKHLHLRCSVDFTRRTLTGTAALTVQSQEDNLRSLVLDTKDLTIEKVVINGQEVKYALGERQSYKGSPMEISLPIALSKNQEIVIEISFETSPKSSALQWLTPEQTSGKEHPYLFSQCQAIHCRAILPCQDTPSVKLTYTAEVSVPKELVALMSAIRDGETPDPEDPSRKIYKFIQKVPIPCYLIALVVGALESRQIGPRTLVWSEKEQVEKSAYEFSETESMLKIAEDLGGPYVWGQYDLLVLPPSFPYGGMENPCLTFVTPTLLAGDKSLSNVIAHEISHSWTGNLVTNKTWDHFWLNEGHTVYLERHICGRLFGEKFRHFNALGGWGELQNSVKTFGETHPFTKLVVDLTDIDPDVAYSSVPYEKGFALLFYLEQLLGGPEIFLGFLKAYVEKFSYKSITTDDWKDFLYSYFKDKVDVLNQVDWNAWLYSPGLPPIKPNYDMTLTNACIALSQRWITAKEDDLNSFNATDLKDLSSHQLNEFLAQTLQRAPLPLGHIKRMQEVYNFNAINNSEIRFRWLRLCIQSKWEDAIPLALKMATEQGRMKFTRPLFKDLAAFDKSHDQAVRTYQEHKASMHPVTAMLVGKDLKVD
Procedure, shortened: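 Human LTA4H (1 nM final) incubated with compound and Arg-AMC (50 μM final) in 50 mM Tris-HCl pH 7.5, 100 mM KCl, 0.5% BSA, 1 h at room temperature. Product read as AMC fluorescence (ex 380/em 460 nm); IC50 reported.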

[2] = system: LTB4 synthesis in human whole blood; assay: human whole blood (HWB) assay, inhibition of LTB4 production; format: cell-based; settings: heparinized human whole blood, calcimycin 20 μM stimulation, plasma LTB4
Procedure, shortened: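 Heparinized human whole blood preincubated with compound 15 min at 37 °C, then stimulated with 20 μM (final) calcimycin for 30 min at 37 °C. Plasma LTB4 measured by antibody-based HTRF; IC50 reported.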

| SMILES | IC50 [1] [nM] | IC50 [2] [nM] |
| --- | --- | --- |
| CC(=O)N1CC2CN(Cc3ccc4cc(Oc5ccc(-c6ccn[nH]6)cn5)ccc4n3)CC2C1 (stereo not drawn) [Example 32, 1-(5-{6-[5-(2H-Pyrazol-3-yl)-pyridin-2-yloxy]-quinolin-2-ylmethyl}-hexahydro-pyrrolo[3,4-c]pyrrol-2-yl)-ethanone] | 0.85 | 210 |
| CC(=O)N[C@H]1C[C@H]2CC[C@@H](C1)N2CC1Cc2ccc(Oc3ccc(-c4ccn[nH]4)cc3)cc2O1 (stereo partly drawn) [Example 131, N-((endo)-8-{6-[4-(2H-Pyrazol-3-yl)-phenoxy]-2,3-dihydro-benzofuran-2-ylmethyl}-8-aza-bicyclo[3.2.1]oct-3-yl)-acetamide] | 0.17 | 120 |
| CNCc1ccc2cc(Oc3ccc(-c4ccn[nH]4)cn3)ccc2n1 [Example 25, Methyl-{6-[5-(2H-pyrazol-3-yl)-pyridin-2-yloxy]-quinolin-2-ylmethyl}-amine] | 0.5 | 110 |
| CC(=O)NC1CCN(CCCn2cc3cc(Oc4ccc(-c5ccn[nH]5)cc4)ccc3n2)CC1 [Example 116, N-[1-(3-{5-[4-(2H-Pyrazol-3-yl)-phenoxy]-indazol-2-yl}-propyl)-piperidin-4-yl]-acetamide] | 0.95 | 580 |
| OC1CCN(Cc2ccc3cc(Oc4ccc(-c5ccn[nH]5)cn4)ccc3c2)CC1 [Example 4, 1-{6-[5-(2H-Pyrazol-3-yl)-pyridin-2-yloxy]-naphthalen-2-ylmethyl}-piperidin-4-ol] | 0.54 | 190 |
| COC1CCCN(Cc2nc3cc(Oc4ccc(-c5ccn[nH]5)cc4)ccc3[nH]2)C1 (stereo not drawn) [Example 172, 2-(3-Methoxy-piperidin-1-ylmethyl)-5-[4-(2H-pyrazol-3-yl)-phenoxy]-1H-benzoimidazole] | 0.07 | 130 |
| Cc1noc(C2CCN(Cc3nc4cc(Oc5ccc(-c6ccn[nH]6)cc5)ccc4[nH]3)CC2)n1 [Example 65, 2-[4-(3-Methyl-[1,2,4]oxadiazol-5-yl)-piperidin-1-ylmethyl]-5-[4-(2H-pyrazol-3-yl)-phenoxy]-1H-benzoimidazole] | 0.15 | 180 |
| CN(Cc1nc2cc(Oc3ccc(-c4ccn[nH]4)cc3)ccc2[nH]1)C[C@H]1CCCO1 [Example 81] | 0.27 | 100 |
| c1cc(-c2ccc(Oc3ccc4nn(CCNCC5CCOCC5)cc4c3)cc2)[nH]n1 [Example 206, (2-{5-[4-(2H-Pyrazol-3-yl)-phenoxy]-indazol-2-yl}-ethyl)-(tetrahydro-pyran-4-ylmethyl)-amine] | 0.42 | 210 |
| O=C1OCCCN1C1CCN(Cc2ccc3cc(Oc4ccc(-c5ccn[nH]5)cn4)ccc3n2)CC1 [Example 190, 3-(1-{6-[5-(2H-Pyrazol-3-yl)-pyridin-2-yloxy]-quinolin-2-ylmethyl}-piperidin-4-yl)-[1,3]oxazinan-2-one] | 0.53 | 170 |
| CCN(CCO)Cc1nc2cc(Oc3ccc(-c4ccn[nH]4)cc3)ccc2[nH]1 [Example 192, 2-(Ethyl-{5-[4-(2H-pyrazol-3-yl)-phenoxy]-1H-benzoimidazol-2-ylmethyl}-amino)-ethanol] | 0.17 | 170 |
| O=C(CO)N1CCCC12CCN(Cc1ccc3cc(Oc4ccc(-c5ccn[nH]5)cn4)ccc3n1)CC2 [Example 50, 2-Hydroxy-1-(8-{6-[5-(2H-pyrazol-3-yl)-pyridin-2-yloxy]-quinolin-2-ylmethyl}-1,8-diaza-spiro[4.5]dec-1-yl)-ethanone] | 2.8 | 1100 |
| O=C(O)c1nc2cc(Oc3ccc(-c4cc[nH]n4)cc3)ccc2[nH]1 [Example 69, 5-[4-(1H-Pyrazol-3-yl)-phenoxy]-1H-benzoimidazole-2-carboxylic acid] | 3.9 | 650 |
| O=C1CC[C@@H](COc2nccc3cc(Oc4ccc(-c5ccn[nH]5)cc4)ccc23)N1 [Example 119, (S)-5-{6-[4-(2H-Pyrazol-3-yl)-phenoxy]-isoquinolin-1-yloxymethyl}-pyrrolidin-2-one] | 20 | 2000 |
| c1cc(-c2ccc(Oc3ccc4nc(OCCN5CCOCC5)ccc4c3)nc2)[nH]n1 [Example 120, 2-(2-morpholin-4-yl-ethoxy)-6-[5-(2H-pyrazol-3-yl)-pyridin-2-yloxy]-quinoline] | 25 | 3100 |
| CC(C)(C)C(=O)N1CCN(Cc2nc3cc(Oc4ccc(-c5ccn[nH]5)cc4)ccc3[nH]2)CC1 [Example 70, 2,2-Dimethyl-1-(4-{5-[4-(2H-pyrazol-3-yl)-phenoxy]-1H-benzoimidazol-2-ylmethyl}-piperazin-1-yl)-propan-1-one] | 0.16 | 230 |
| CS(=O)(=O)NC1CCN(CCc2coc3cc(Oc4ccc(-c5ccn[nH]5)cn4)ccc23)CC1 [Example 141, N-[1-(2-{6-[5-(2H-Pyrazol-3-yl)-pyridin-2-yloxy]-benzofuran-3-yl}-ethyl)-piperidin-4-yl]-methanesulfonamide] | 0.35 | 200 |
| CC(=O)NC1CCN(CCCn2ncc3cc(Oc4ccc(-c5ccn[nH]5)cc4)ccc32)CC1 [Example 109, N-[1-(3-{5-[4-(2H-Pyrazol-3-yl)-phenoxy]-indazol-1-yl}-propyl)-piperidin-4-yl]-acetamide] | 0.47 | 230 |
| c1cc(-c2ccc(Cc3ccc4nc(CN5CCOCC5)[nH]c4c3)cc2)[nH]n1 [Example 60, 2-Morpholin-4-ylmethyl-6-[4-(2H-pyrazol-3-yl)-benzyl]-1H-benzoimidazole] | 0.23 | 140 |
| CC(=O)NC[C@@H]1[C@H]2CN(Cc3ccc4cc(Oc5ccc(-c6ccn[nH]6)cn5)ccc4n3)C[C@@H]12 [Example 41, N-((1α,5α,6α)-3-{6-[5-(2H-Pyrazol-3-yl)-pyridin-2-yloxy]-quinolin-2-ylmethyl}-3-aza-bicyclo[3.1.0]hex-6-ylmethyl)-acetamide] | 0.99 | 320 |

Other lines, results leading:

| IC50 [1] [nM] | IC50 [2] [nM] | SMILES |
| --- | --- | --- |
| 1.2 | 220 | CO[C@H]1CCN(Cc2ccc3cc(Oc4ccc(-c5ccn[nH]5)cn4)ccc3n2)C1 [Example 208, 2-((S)-3-Methoxy-pyrrolidin-1-ylmethyl)-6-[5-(2H-pyrazol-3-yl)-pyridin-2-yloxy]-quinoline] |
| 0.13 | 130 | c1cc(-c2ccc(Oc3ccc4[nH]c(CN5CCC(CN6CCOCC6)CC5)nc4c3)cc2)[nH]n1 [Example 225, 2-(4-Morpholin-4-ylmethyl-piperidin-1-ylmethyl)-5-[4-(2H-pyrazol-3-yl)-phenoxy]-1H-benzoimidazole] |
| 0.3 | 170 | CO[C@H]1CCN(Cc2nc3cc(Oc4ccc(-c5ccn[nH]5)cc4)ccc3[nH]2)C1 [Example 226, 2-((S)-3-Methoxy-pyrrolidin-1-ylmethyl)-5-[4-(2H-pyrazol-3-yl)-phenoxy]-1H-benzoimidazole] |
| 0.7 | 330 | c1cc(-c2ccc(Oc3ccc4nc(CN5CCOCC5)ccc4c3)cc2)[nH]n1 [Example 254, 2-Morpholin-4-ylmethyl-6-[4-(2H-pyrazol-3-yl)-phenoxy]-quinoline] |
| 1.4 | 300 | O=C1CC[C@@H](Cn2ncc3cc(Oc4ccc(-c5ccn[nH]5)cc4)ccc32)N1 [Example 253, (S)-5-{5-[4-(2H-Pyrazol-3-yl)-phenoxy]-indazol-1-ylmethyl}-pyrrolidin-2-one] |
| 0.12 | 2100 | O=C(O)C1CCN(Cc2cn3cc(Oc4ccc(-c5ccn[nH]5)cc4)ccc3n2)CC1 [Example 259, 1-{6-[4-(2H-Pyrazol-3-yl)-phenoxy]-imidazo[1,2-a]pyridin-2-ylmethyl}-piperidine-4-carboxylic acid] |
| 0.66 | 220 | O=C1CCCCN1C1CCN(Cc2ccc3cc(Oc4ccc(-c5ccn[nH]5)cn4)ccc3n2)CC1 [Example 209, 1′-{6-[5-(2H-Pyrazol-3-yl)-pyridin-2-yloxy]-quinolin-2-ylmethyl}-[1,4′]bipiperidinyl-2-one] |
| 0.22 | 190 | CN(Cc1nc2cc(Oc3ccc(-c4ccn[nH]4)cc3)ccc2[nH]1)[C@H]1CCCC[C@@H]1O [Example 229, (1S,2S)-2-(Methyl-{5-[4-(2H-pyrazol-3-yl)-phenoxy]-1H-benzoimidazol-2-ylmethyl}-amino)-cyclohexanol] |
| 1.2 | 250 | COC1CCN(Cc2ccc3cc(Oc4ccc(-c5ccn[nH]5)cn4)ccc3n2)CC1 [Example 212, 2-(4-Methoxy-piperidin-1-ylmethyl)-6-[5-(2H-pyrazol-3-yl)-pyridin-2-yloxy]-quinoline] |
| 1.6 | 210 | O=S1(=O)CCN(Cc2ccc3cc(Oc4ccc(-c5cc[nH]n5)cn4)ccc3n2)CC1 [Example 242, 2-(1,1-Dioxo-1-λ-6-thiomorpholin-4-ylmethyl)-6-[5-(1H-pyrazol-3-yl)-pyridin-2-yloxy]-quinoline] |
